Tests used:
BRD-3 (Domain 1) = BRD-3 (Domain 1) (Homo sapiens (Human), UniProt Q15059); test: AlphaScreen BRD binding assay, BRD-3 (Domain 1); conditions: acetyl-histone H4 peptide 2.5 nM, protein 80 nM
Procedure: (§1) Biological Characterization Assay Conditions Binding Assay
BRD binding and inhibition was assessed by measuring the interaction of biotinylated acetyl-histone H4 peptide (Anaspec #64989) with the BRD target protein utilising AlphaScreen® technology (Perkin Elmer). In a white 384-well low volume plate (Greiner #784076), 100 nL of compound series in DMSO (0.5% final concentration) was added to the BRD target protein (80 nM final). After 30 min incubation at RT, H4 peptide was added to a final concentration of 2.5 nM. AlphaScreen streptavidin donor beads and AlphaScreen nickel chelate acceptor beads were added to a final concentration of 10 ug/mL each and allowed to incubate in a darkened environment for 1 h at RT. Plates were read on an EnVision plate reader (Perkin Elmer) and IC50's calculated using a four parameter non-linear curve fit.
These conditions are identical for all BRDs screened except BRD2D2 which uses 160 nM protein and 1.25 nM peptide.

BRD-4 (Domain 1) = BRD-4 (Domain 1) (Homo sapiens (Human), UniProt O60885); test: AlphaScreen BRD binding assay, BRD-4 (Domain 1); conditions: acetyl-histone H4 peptide 2.5 nM, protein 80 nM
Procedure: as §1
(§2) AlphaScreen streptavidin donor beads and AlphaScreen nickel chelate acceptor beads were added to a final concentration of 10 ug/mL each and allowed to incubate in a darkened environment for 1 h at RT. Plates were read on an EnVision plate reader (Perkin Elmer) and IC50's calculated using a four parameter non-linear curve fit.

BRD-4 (Domain 2) = BRD-4 (Domain 2) (Homo sapiens (Human), UniProt O60885); test: AlphaScreen BRD binding assay, BRD-4 (Domain 2); conditions: acetyl-histone H4 peptide 2.5 nM, protein 80 nM
Procedure: as §1, §2

HL-60 = test: Cell proliferation assay (CellTiter-Glo), HL-60; type: cell-based; conditions: Homo sapiens, HL-60 cells, 72 h
Procedure: (§3) The cells were prepared in the required fashion (suspension or adherent). The cells were initially washed once in the culture medium that they would be finally treated in. Following this 10 ml of the test medium was added and the cells. The mixture was pipetted gently several times.
(§4) The cells were counted and then the volume was spun down to the volume necessary for the total number of cells needed. The cells were then resuspended in the appropriate test medium to the desired concentration. In general, the final concentration of non-adherent cells was 2×10^5 cells/ml i.e. 10,000 cells per 50 μ1. Once the desired concentration had been reached, 50 µl of the cells were added to the appropriate wells and the cells were incubated for 72 h at 37° C.
(§5) CellTiter-Glo Luminescent Assay (Kit G7571—See Promega's Instruction Manual for Additional Details):
(§6) Both reagents were pre-warmed to RT. The buffer was thawed in a 37° C. water bath until it had just completely thawed. It was then left on a bench at RT for at least 30 min.
(§7) Following this the substrate and buffer were mixed together. To ensure that the substrate was dissolved, the mixture was inverted several times.
(§8) The cell culture plates were removed from the incubator and were then allowed to adjust to RT for at least 30 min.
(§9) Afterwards 40 μL of the reagent was added to 100 μL of the culture medium. […] The plates were then incubated for 10 min on the bench. The luminescence could then be read using a luminescence plate reader.

BRD-2 (Domain 1) = BRD-2 (Domain 1) (Homo sapiens (Human), UniProt P25440); test: AlphaScreen BRD binding assay, BRD-2 (Domain 1); conditions: acetyl-histone H4 peptide 2.5 nM, protein 80 nM
Chain of BRD-2 (Domain 1) (P25440 74-180): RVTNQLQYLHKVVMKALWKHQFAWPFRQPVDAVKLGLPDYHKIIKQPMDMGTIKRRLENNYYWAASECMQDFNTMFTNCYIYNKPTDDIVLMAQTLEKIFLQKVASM
Procedure: as §1, §2

BRD-2 (Domain 2) = BRD-2 (Domain 2) (Homo sapiens (Human), UniProt P25440); test: AlphaScreen BRD binding assay, BRD-2 (Domain 2); conditions: 160 nM protein and 1.25 nM peptide
Chain of BRD-2 (Domain 2) (P25440 344-453): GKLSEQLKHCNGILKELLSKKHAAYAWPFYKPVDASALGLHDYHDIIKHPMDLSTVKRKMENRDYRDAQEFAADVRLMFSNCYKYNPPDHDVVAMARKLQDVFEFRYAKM
Procedure: as §1, §2

MV4; 11 = test: Cell proliferation assay (CellTiter-Glo), MV4;11; type: cell-based; conditions: Homo sapiens, MV4;11 cells, 72 h
Procedure: as §3, §4, §5, §6, §7, §8, §9

Chain of BRD-3 (Domain 1) (Q15059 34-140): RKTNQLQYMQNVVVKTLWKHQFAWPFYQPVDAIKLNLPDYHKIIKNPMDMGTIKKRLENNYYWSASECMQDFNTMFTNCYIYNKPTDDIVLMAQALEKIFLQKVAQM

SMILES	IC50 (BRD-3 (Domain 1))	IC50 (BRD-4 (Domain 1))	IC50 (BRD-4 (Domain 2))	IC50 (HL-60)	IC50 (BRD-2 (Domain 1))	IC50 (BRD-2 (Domain 2))	IC50 (MV4; 11)
Cc1nnn2c1-c1ccc(C(=O)NC(C)c3ccc(F)cc3)cc1N(c1ccc(Cl)cc1)CC2 (stereo in doubt) [Example 33, 7-(4-chlorophenyl)-N—((R)-1-(4-fluorophenyl)ethyl)-1-methyl-6,7-dihydro-5H-benzo[f][1,2,3]triazolo[1,5-d][1,4]diazepine-9-carboxamide]	< 100 nM						
Cc1nnn2c1-c1ccccc1N(c1ccccc1)CC2 [Example 5, 1-methyl-7-phenyl-6,7-dihydro-5H-benzo[f][1,2,3]triazolo[1,5-d][1,4]diazepine]		< 100 nM	< 100 nM				
Cc1nnn2c1-c1ccccc1N(c1ccc(Cl)cc1)CC2 [Example 11, 7-(4-chlorophenyl)-1-methyl-6,7-dihydro-5H-benzo[f][1,2,3]triazolo[1,5-d][1,4]diazepine]				1000 to 5000 nM			
Cc1nnn2c1-c1ccc(-c3cnc(N)nc3)cc1N(c1ccc(Cl)cc1)CC2 [Example 12, 5-(7-(4-chlorophenyl)-1-methyl-6,7-dihydro-5H-benzo[f][1,2,3]triazolo[1,5-d][1,4]diazepin-9-yl)pyrimidin-2-amine]				< 1000 nM			
Cc1nnn2c1-c1ccccc1N(c1ccc(Cl)cc1)C[C@@H]2C [Example 13, 7-(4-chlorophenyl)-1,5-dimethyl-6,7-dihydro-5H-benzo[f][1,2,3]triazolo[1,5-d][1,4]diazepine]				< 1000 nM	< 100 nM	< 100 nM	
Cc1nnn2c1-c1ccc(Br)cc1N(c1ccc(Cl)cc1)CC2C (stereo not drawn) [Example 14, 9-Bromo-7-(4-chlorophenyl)-1,5-dimethyl-6,7-dihydro-5H-benzo[f][1,2,3]triazolo[1,5-d][1,4]diazepine]				< 1000 nM			
Cc1nnn2c1-c1ccccc1N(c1ccc(Cl)cc1)C[C@H]2C [Example 16, (5R)-7-(4-chlorophenyl)-1,5-dimethyl-6,7-dihydro-5H-benzo[f][1,2,3]triazolo[1,5-d][1,4]diazepine]				< 1000 nM	< 100 nM	< 100 nM	
Cc1nnn2c1-c1ccc(Cn3cccn3)cc1N(c1ccc(Cl)cc1)CC2 [Example 20, 9-((1H-pyrazol-1-yl)methyl)-7-(4-chlorophenyl)-1-methyl-6,7-dihydro-5H-benzo[f][1,2,3]triazolo[1,5-d][1,4]diazepine]	< 100 nM	< 100 nM	< 100 nM				
Cc1nnn2c1-c1ccccc1N(c1ccc(Cl)cc1)CC2CCO (stereo not drawn) [Example 21, 2-(7-(4-chlorophenyl)-1-methyl-6,7-dihydro-5H-benzo[f][1,2,3]triazolo[1,5-d][1,4]diazepin-5-yl)ethanol]	< 100 nM	< 100 nM	< 100 nM	1000 to 5000 nM	100 to 1000 nM	< 100 nM	
Cc1nnn2c1-c1ccccc1N(c1cccc(Br)c1)CC2 [Example 22, 7-(3-Bromophenyl)-1-methyl-6,7-dihydro-5H-benzo[f][1,2,3]triazolo[1,5-d][1,4]diazepine]	< 100 nM	< 100 nM	< 100 nM	1000 to 5000 nM	100 to 1000 nM	< 100 nM	
C=Cc1cccc(N2CCn3nnc(C)c3-c3ccccc32)c1 [Example 23, 1-Methyl-7-(3-vinylphenyl)-6,7-dihydro-5H-benzo[f][1,2,3]triazolo[1,5-d][1,4]diazepine]	< 100 nM	< 100 nM	< 100 nM	1000 to 5000 nM	100 to 1000 nM	< 100 nM	
Cc1nnn2c1-c1ccccc1N(c1cccc(C(O)CO)c1)CC2 (stereo not drawn) [Example 24, 1-(3-(1-methyl-5H-benzo[f][1,2,3]triazolo[1,5-d][1,4]diazepin-7(6H)-yl)phenyl)ethane-1,2-diol]	< 100 nM	< 100 nM	< 100 nM	1000 to 5000 nM	< 100 nM	< 100 nM	
FC(F)c1nnn2c1-c1ccccc1N(c1ccc(Cl)cc1)CC2 [Example 29, 7-(4-chlorophenyl)-1-(difluoromethyl)-6,7-dihydro-5H-benzo[f][1,2,3]triazolo[1,5-d][1,4]diazepine]		100 to 1000 nM	100 to 1000 nM		> 1000 nM	100 to 1000 nM	
Cc1nnn2c1-c1ccc(CCN3CCOCC3)cc1N(c1ccc(Cl)cc1)CC2 [Example 30, 4-(2-(7-(4-chlorophenyl)-1-methyl-6,7-dihydro-5H-benzo[f][1,2,3]triazolo[1,5-d][1,4]diazepin-9-yl)ethyl)morpholine]	100 to 1000 nM	100 to 1000 nM	100 to 1000 nM	1000 to 5000 nM	100 to 1000 nM	100 to 1000 nM	
COC(=O)c1ccc2c(c1)N(c1ccc(Cl)cc1)CCn1nnc(C)c1-2 [Example 31, methyl 7-(4-chlorophenyl)-1-methyl-5,6-dihydrotriazolo[1,5-d][1,4]benzodiazepine-9-carboxylate]				< 1000 nM			< 1000 nM
Cc1nnn2c1-c1ccc(C(=O)NCc3ccccc3)cc1N(c1ccc(Cl)cc1)CC2 [Example 37, N-benzyl-7-(4-chlorophenyl)-1-methyl-6,7-dihydro-5H-benzo[f][1,2,3]triazolo[1,5-d][1,4]diazepine-9-carboxamide]		< 100 nM	< 100 nM				
Cc1nnn2c1-c1ccc(C(=O)NC(c3ccccc3)c3ccccc3)cc1N(c1ccc(Cl)cc1)CC2 [Example 38, N-benzhydryl-7-(4-chlorophenyl)-1-methyl-6,7-dihydro-5H-benzo[f][1,2,3]triazolo[1,5-d][1,4]diazepine-9-carboxamide]	< 100 nM				100 to 1000 nM	< 100 nM	
Cc1nnn2c1-c1ccc(C(=O)NS(C)(=O)=O)cc1N(c1ccc(Cl)cc1)CC2 [Example 41, 7-(4-chlorophenyl)-1-methyl-N-(methylsulfonyl)-6,7-dihydro-5H-benzo[f][1,2,3]triazolo[1,5-d][1,4]diazepine-9-carboxamide]		< 100 nM	< 100 nM	1000 to 5000 nM			< 1000 nM
Cc1nnn2c1-c1ccc(C(N)=O)cc1N(c1ccc(Cl)cc1)CC2 [Example 42, 7-(4-chlorophenyl)-1-methyl-6,7-dihydro-5H-benzo[f][1,2,3]triazolo[1,5-d][1,4]diazepine-9-carboxamide]		< 100 nM	< 100 nM				
Cc1nnn2c1-c1ccc(C(=O)NO)cc1N(c1ccc(Cl)cc1)CC2 [Example 44, 7-(4-Chlorophenyl)-N-hydroxy-1-methyl-6,7-dihydro-5H-benzo[f][1,2,3]triazolo[1,5-d][1,4]diazepine-9-carboxamide]		< 100 nM	< 100 nM		< 100 nM	< 100 nM	
Cc1nnn2c1-c1ccc(C#N)cc1N(c1ccc(Cl)cc1)CC2 [Example 47, 7-(4-chlorophenyl)-1-methyl-6,7-dihydro-5H-benzo[f][1,2,3]triazolo[1,5-d][1,4]diazepine-9-carbonitrile]		< 100 nM	< 100 nM				
CON(C)C(=O)c1ccc2c(c1)N(c1ccc(Cl)cc1)CCn1nnc(C)c1-2 [Example 48, 7-(4-Chlorophenyl)-N-methoxy-N, 1-dimethyl-6,7-dihydro-5H-benzo[f][1,2,3]triazolo[1,5-d][1,4]diazepine-9-carboxamide]		< 100 nM	< 100 nM		< 100 nM	< 100 nM	
Cc1nnn2c1-c1ccc(C(O)C(F)(F)F)cc1N(c1ccc(Cl)cc1)CC2 (stereo not drawn) [Example 50, 1-(7-(4-Chlorophenyl)-1-methyl-6,7-dihydro-5H-benzo[f][1,2,3]triazolo[1,5-d][1,4]diazepin-9-yl)-2,2,2-trifluoroethanol]		< 100 nM	< 100 nM				
Cc1nnn2c1-c1ccc(-c3nn[nH]n3)cc1N(c1ccc(Cl)cc1)CC2 [Example 51, 7-(4-chlorophenyl)-1-methyl-9-(2H-tetrazol-5-yl)-6,7-dihydro-5H-benzo[f][1,2,3]triazolo[1,5-d][1,4]diazepine]		< 100 nM	< 100 nM	> 5000 nM			< 1000 nM

From patent US10167292B2, “Benzodiazepines as bromodomain inhibitors” (Catalyst Therapeutics Pty Ltd, priority 2015, dated 2019)
